{
  "source": "ChEMBL document CHEMBL1129561",
  "about": "(J Med Chem, 1996)",
  "key": {"Progesterone receptor [1]": {"target": "T1, Progesterone receptor (Homo sapiens, UniProt P06401)", "T1 sequence (P06401 whole entry)": "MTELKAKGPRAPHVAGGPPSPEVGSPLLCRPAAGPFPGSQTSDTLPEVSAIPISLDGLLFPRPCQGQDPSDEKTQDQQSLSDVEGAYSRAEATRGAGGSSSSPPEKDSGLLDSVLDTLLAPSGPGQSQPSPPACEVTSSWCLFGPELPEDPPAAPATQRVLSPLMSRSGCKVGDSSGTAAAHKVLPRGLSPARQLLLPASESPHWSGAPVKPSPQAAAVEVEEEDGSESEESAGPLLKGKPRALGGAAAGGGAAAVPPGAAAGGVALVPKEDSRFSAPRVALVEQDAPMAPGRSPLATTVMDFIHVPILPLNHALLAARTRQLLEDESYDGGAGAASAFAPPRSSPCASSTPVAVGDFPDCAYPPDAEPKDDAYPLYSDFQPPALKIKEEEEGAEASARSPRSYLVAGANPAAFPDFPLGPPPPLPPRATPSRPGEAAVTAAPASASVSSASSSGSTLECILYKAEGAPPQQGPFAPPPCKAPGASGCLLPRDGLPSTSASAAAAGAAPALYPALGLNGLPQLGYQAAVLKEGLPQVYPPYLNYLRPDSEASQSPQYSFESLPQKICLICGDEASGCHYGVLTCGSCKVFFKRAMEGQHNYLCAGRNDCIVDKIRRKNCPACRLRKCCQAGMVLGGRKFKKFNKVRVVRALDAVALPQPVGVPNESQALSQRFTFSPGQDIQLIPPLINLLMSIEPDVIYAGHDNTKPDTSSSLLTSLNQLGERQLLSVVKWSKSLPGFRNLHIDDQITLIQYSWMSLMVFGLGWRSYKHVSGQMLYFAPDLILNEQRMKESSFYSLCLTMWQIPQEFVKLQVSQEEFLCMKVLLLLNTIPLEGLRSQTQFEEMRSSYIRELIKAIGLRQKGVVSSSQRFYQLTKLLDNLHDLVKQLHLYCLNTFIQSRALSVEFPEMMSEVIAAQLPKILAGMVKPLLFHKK"}, "Progesterone receptor [2]": {"target": "T1, Progesterone receptor", "remark": "listed apart in the source"}, "[3]": {"target": "T2, Progesterone receptor (Homo sapiens) (UniProt P06401)", "T2 sequence (whole entry)": "T1 sequence (P06401 whole entry)", "conditions": "CV-1"}, "Androgen receptor": {"target": "T3, Androgen receptor (Homo sapiens, UniProt P10275)", "T3 sequence (P10275 whole entry)": "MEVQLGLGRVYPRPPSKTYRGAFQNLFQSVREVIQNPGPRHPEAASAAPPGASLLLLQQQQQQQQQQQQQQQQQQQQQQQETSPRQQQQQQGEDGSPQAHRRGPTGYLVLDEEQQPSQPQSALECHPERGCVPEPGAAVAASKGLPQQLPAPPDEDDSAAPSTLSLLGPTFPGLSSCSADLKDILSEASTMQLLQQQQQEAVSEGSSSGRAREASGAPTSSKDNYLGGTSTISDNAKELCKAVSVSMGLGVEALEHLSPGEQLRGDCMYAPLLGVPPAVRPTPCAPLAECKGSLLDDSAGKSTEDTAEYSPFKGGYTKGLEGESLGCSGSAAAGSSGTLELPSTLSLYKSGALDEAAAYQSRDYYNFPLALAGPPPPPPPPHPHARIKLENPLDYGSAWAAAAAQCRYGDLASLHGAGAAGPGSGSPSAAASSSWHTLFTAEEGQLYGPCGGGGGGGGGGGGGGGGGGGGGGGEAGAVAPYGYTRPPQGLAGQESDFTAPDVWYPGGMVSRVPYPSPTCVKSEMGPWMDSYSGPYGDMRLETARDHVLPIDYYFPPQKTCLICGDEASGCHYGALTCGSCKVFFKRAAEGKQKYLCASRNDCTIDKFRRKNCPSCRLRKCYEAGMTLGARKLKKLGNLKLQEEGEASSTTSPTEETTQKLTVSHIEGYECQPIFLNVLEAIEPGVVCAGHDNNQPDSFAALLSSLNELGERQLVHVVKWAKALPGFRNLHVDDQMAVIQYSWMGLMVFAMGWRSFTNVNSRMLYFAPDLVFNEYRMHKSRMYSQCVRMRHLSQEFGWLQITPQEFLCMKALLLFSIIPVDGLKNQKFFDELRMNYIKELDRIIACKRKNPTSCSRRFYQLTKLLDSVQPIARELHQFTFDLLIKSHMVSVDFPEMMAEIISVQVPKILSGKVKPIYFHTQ", "description": "Inhibitory activity against human Androgen receptor"}, "Progesterone receptor [4]": {"target": "T1, Progesterone receptor", "remark": "listed apart in the source"}},
  "data": [
    {"smiles": "C=C1C=C(C)CC(C)(C)C1Cc1ccc([N+](=O)[O-])cc1", "note": "(stereo not given)", "values": [
      {"measurement": "IC50", "setting": "Progesterone receptor [1]", "value": 1050, "unit": "nM"},
      {"measurement": "IC50", "setting": "Progesterone receptor [2]", "value": 186, "unit": "nM"},
      {"measurement": "Max inhibition", "setting": "[3]", "value": 90, "unit": "%"},
      {"measurement": "IC50", "setting": "Androgen receptor", "value": 250, "unit": "nM"},
      {"measurement": "Ki", "setting": "Progesterone receptor [4]", "value": 53.5, "unit": "nM"}
    ]}
  ]
}
